These results are taken from patent US10947223B2, “Substituted oxazines as beta-secretase inhibitors” (AMGEN INC., priority 2016, dated 2021).

The structures appear in SMILES notation.

Data set [1] deals with Aβ peptide. Particulars: sustained and dose-dependent manner; cited from earlier work.
The conditions of data set [2]: phase I clinical trials; cited from earlier work.
Data set [3] relates to Aβ peptide. The note with it: nonhuman primates; cited from earlier work.
The conditions of data set [4]: repeated doses up to 200 mg, phase I clinical trial; cited from earlier work.
Data set [5] deals with T1, BACE1 (Homo sapiens (Human), UniProt P56817). Kind of data set: In vitro BACE1 cell-based assay (Aβ40 in conditioned medium, HTRF). Particulars: Aβ40 in conditioned medium of cells expressing APP, 24 h. On the procedure:
In Vitro BACE1 Cell-Based Assay
The cell-based assay measures inhibition or reduction of Aβ40 in conditioned medium of test compound treated cells expressing amyloid precursor protein. Cells stably expressing Amyloid Precursor Protein (APP) were plated at a density of 45K cells/well in 384 well plates (Corning/BioCoat 354663). The test compounds were then added to cells in 22-point dose response concentrations with the starting concentration being 62.5 μM. The compounds were diluted from stock solutions in DMSO and the final DMSO concentration of the test compounds on cells was 0.625%. The cells were cultivated overnight at 37° C. and 5% CO2 in DMEM supplemented with 10% FBS. After 24 h of incubation with the test compounds, the conditioned media was collected and the Aβ40 levels were determined using HTRF (Homogeneous Time Resolved Fluorescence). The IC50 of the compound was calculated from the percent of control or percent inhibition of Aβ 40 as a function of the concentration of the test compound.
The HTRF to detect Aβ40 was performed in 384 well plates (Costar 3658). The antibody pair that were used to detect Aβ 40 from cell supernatants were ConfAb40 antibody (Amgen in-house) and biotinylated 6E10 (BIOLEGEND). As an alternative to ConfAb40, a commercially available antibody, Anti-beta Amyloid 1-40 antibody [BDI350] from Abcam, Cambridge, Mass. 02139-1517 (Product code: ab20068), may be used in this assay. The concentrations were 0.35 μg/mL of ConfAb40 antibody and 1.33 μg/mL of 6E10-biotinylated antibody, as well as 4.5 μg/mL of Streptavidin Allophycocyanin Conjugate (ThermoFisher Scientific) in HTRF Buffer ([…], 1% BSA, 0.5% Tween 20).
The conditioned media was incubated with above antibodies and Streptavidin Allophycocyanin Conjugate for 30-60 minutes at 23° C. The final readout was performed on Envision from PerkinElmer.
Target sequence in this assay (P56817 46-501, species assumed): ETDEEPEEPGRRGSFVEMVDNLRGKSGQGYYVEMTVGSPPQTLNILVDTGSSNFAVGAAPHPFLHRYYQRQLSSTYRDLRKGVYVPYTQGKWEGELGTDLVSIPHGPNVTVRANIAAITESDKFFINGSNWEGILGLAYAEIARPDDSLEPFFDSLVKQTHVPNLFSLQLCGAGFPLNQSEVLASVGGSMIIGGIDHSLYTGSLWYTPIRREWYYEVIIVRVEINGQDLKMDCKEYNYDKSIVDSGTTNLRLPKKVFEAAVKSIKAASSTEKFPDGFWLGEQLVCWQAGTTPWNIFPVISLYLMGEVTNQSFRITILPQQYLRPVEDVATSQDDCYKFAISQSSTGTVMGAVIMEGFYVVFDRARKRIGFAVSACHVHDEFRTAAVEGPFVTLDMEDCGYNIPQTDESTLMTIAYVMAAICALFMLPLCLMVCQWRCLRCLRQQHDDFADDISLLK

The target of data set [6] is T1, BACE1. Kind of data set: In vitro enzymatic BACE1 FRET assay. Particulars: pH 4.5, read-out: BACE1 Enzyme IC50. Type of data set: biochemical. The procedure: (§1) In Vitro Enzymatic BACE1 and BACE2 FRET (Fluorescence Resonance Energy Transfer) Assays
(§2) The cDNAs for both human recombinant BACE1 and 2 with C-terminal 6-His Tags were cloned into transient protein expression vectors, which were subsequently transfected into mammalian cell lines. These recombinant proteins were further purified using Ni-NTA affinity chromatography (Qiagen). The assay buffer used in these screens was 0.05 M acetate, pH 4.5, 8% DMSO final, 100 μM genapol (which is a nonionic detergent, below its Critical Micelle Concentration). The β-secretase enzyme (0.02 nM for BACE1 and 0.64 nM for BACE2), which was pre-incubated for one hour with the test compound, typically in about 1 uL of DMSO according to a serial dilution, was added thereto. The assay was effectively started by the addition of FRET substrate (50 nM) and the combination was incubated for one hour. The FRET assay was terminated by the addition of tris buffer, which raised the pH to neutrality, and the fluorescence was determined. The FRET substrate was a peptide with commercially available fluorophore and quencher, on opposite sides of the BACE cleavage site. The specific FRET substrate used in this assay was made by Amgen in-house. Commercially available FRET substrates, for example, the FRET substrate offered with the BACE1 FRET Assay Kit sold by ThermoFisher Scientific (Catalog Number P2985), may be used in this assay with the appropriate modifications, which are within the purview of the ability of a person with ordinary skill in the art. Proteolytic cleavage of the FRET substrate released quenching of fluorescence (excitation 488 nm and emission 590 nm).
Target sequence in this assay (P56817 46-501): as the sequence (P56817 46-501, species assumed) above

Data set [7] addresses human recombinant BACE2 (Homo sapiens (Human), UniProt Q9Y5Z0). Kind of data set: In vitro enzymatic BACE2 FRET assay. Type of data set: biochemical. The note with it: pH 4.5, read-out: BACE2 Enzyme IC50. On the procedure: as §1, §2
Data set [8] deals with Recombinant CatD (Homo sapiens (Human), UniProt P07339). Kind of data set: In vitro enzymatic Cathepsin D (CatD) FRET assay. Type of data set: biochemical. Particulars: pH 3.5, read-out: CatD Enzyme IC50. On the procedure:
In Vitro Enzymatic Cathepsin D (CatD) FRET Assay
Recombinant CatD was expressed in CHO cells. The assay buffer for CatD was 0.05 M citrate pH 3.5, 10% DMSO final, 5 mM CHAPS. The CatD enzyme (9 nM) was pre-incubated for one hour with inhibitors, typically in about 1 uL of DMSO according to a serial dilution, is added thereto. The assays was effectively started by the addition of different FRET substrates (20 nM for CatD) and the combination was incubated for one hour. The FRET assay was terminated with by addition of tris buffer, which raises the pH to neutrality, and the fluorescence was determined. The FRET substrate was a peptide with commercially available fluorophore and quencher, on opposite sides of the CatD cleavage site. The CatD substrate peptide sequence was based on sequence #1 of Table 1 from Gulnik et al., FEBS Lett. 413(2):379-384 (1997). Proteolytic cleavage of the FRET substrate released quenching of fluorescence (CatD excitation 500 nm and emission 580 nm).
The in vitro CatD FRET assay data for each of the Examples is provided in Table 2, conducted by the first procedure described above. […] Thus, with this surprising selectivity profile, the compounds provided herein are believed to minimize, reduce or completely eliminate any risk of retinal atrophy and abnormal development of the eye and of the retinal pigmented epithelium as it relates to the normal function and activity of CatD.

Data set [9] concerns Aβ peptide. The note with it: oral dose of 95 mg once daily; cited from earlier work.
For data set [10] the following is noted: in vivo; cited from earlier work.
The subject of data set [11] is pigment epithelium of the rat's eye. Particulars: higher compound dose given for three months; cited from earlier work.

Chain of Recombinant CatD (P07339 65-412): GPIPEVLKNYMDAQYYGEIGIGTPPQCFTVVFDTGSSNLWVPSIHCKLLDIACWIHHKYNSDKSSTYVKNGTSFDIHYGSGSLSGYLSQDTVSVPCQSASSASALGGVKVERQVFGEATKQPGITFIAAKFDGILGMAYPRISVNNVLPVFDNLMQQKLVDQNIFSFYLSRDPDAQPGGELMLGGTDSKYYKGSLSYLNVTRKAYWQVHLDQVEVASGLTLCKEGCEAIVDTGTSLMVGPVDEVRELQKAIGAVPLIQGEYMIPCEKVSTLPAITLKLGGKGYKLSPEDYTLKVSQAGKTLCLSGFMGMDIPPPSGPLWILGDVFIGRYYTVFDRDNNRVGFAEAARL
Chain of human recombinant BACE2 (Q9Y5Z0 63-518): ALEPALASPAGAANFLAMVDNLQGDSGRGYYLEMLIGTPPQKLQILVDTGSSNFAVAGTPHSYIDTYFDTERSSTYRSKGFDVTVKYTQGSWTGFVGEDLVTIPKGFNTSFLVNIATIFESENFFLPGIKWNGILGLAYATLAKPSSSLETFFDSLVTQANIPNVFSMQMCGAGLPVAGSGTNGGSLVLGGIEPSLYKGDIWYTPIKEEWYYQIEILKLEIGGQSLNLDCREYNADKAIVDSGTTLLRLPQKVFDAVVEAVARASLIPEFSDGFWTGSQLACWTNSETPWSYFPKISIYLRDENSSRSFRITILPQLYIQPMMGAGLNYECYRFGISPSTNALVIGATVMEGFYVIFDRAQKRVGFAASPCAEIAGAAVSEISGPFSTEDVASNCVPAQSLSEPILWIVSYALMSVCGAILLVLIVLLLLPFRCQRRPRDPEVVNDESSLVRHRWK

Consider `CN1C(=N)N[C@](C)(c2cc(NC(=O)c3ccc(F)cn3)ccc2F)CS1(=O)=O` [MK-8931], for which the “CSF Aβ peptide concentrations” value in data set [1] was “significantly reduced CSF Aβ peptide concentrations”. In addition, the safety profile entry in data set [2] is “excellent safety profile with no immediately noticeable side effects”.

As for `C[C@H]1OC[C@]2(c3cc(NC(=O)c4cnc(C(F)F)cn4)ccc3F)N=C(N)SC[C@H]12` [Example E2609], the “reduction in Aβ peptide levels in the CSF and plasma” value in data set [3] was “significant reduction”. The clinical safety result in data set [4] is given as “did not show clinical significant safety concerns”.

For the compound `C[C@@]1(c2cc(/C=C(\F)c3ccc(C#N)cn3)ccc2F)CO[C@@](C)(C(F)(F)F)C(N)=N1` [Example 104, 6-((Z)-2-(3-((3R,6R)-5-amino-3,6-dimethyl-6-(trifluoromethyl)-3,6-dihydro-2H-1,4-oxazin-3-yl)-4-fluorophenyl)-1-fluorovinyl)nicotinonitrile], the IC50 was determined as 152 nM in data set [5], 26 nM in data set [6], 95 nM in data set [7] and 204000 nM in [8].

Turning to `C[C@@]1(c2cc(NC(=O)c3ccc(C#N)cn3)ccc2F)C=CSC(N)=N1` [JNJ-54861911], in data set [9], the “Aβ peptide reduction in CSF” value is given as “up to 95%”. For the same compound, the “ability to cross the blood-brain barrier” value in [10] is “demonstrated an ability to cross the blood-brain barrier”.

For the compound `C[C@@]1(c2cc(/C=C(\F)c3cnc(OCC(F)(F)C(F)F)cn3)ccc2F)CO[C@@](C)(C(F)(F)F)C(N)=N1` [Example 106, (2R,5R)-5-(2-fluoro-5-((Z)-2-fluoro-2-(5-(2,2,3,3-tetrafluoropropoxy)pyrazin-2-yl)vinyl)phenyl)-2,5-dimethyl-2-(trifluoromethyl)-5,6-dihydro-2H-1,4-oxazin-3-amine], the IC50 is 4130 nM in data set [5], 666 nM in data set [6], 1590 nM in [7] and 88400 nM in [8].

Turning to `C[C@@]1(c2cc(/C=C(\F)c3ccc(Cl)cn3)ccc2F)CO[C@@](C)(C(F)(F)F)C(N)=N1` [Example 103, (2R,5R)-5-(5-((Z)-2-(5-chloropyridin-2-yl)-2-fluorovinyl)-2-fluorophenyl)-2,5-dimethyl-2-(trifluoromethyl)-5,6-dihydro-2H-1,4-oxazin-3-amine], the IC50 worked out at 693 nM in data set [5], 65 nM in data set [6], 17 nM in [7] and 19200 nM in data set [8].

Regarding `C[C@]1(c2cc(/C=C(\F)c3cnc(Cl)cn3)ccc2F)N=C(N)OC[C@@H]1OCC(F)(F)F` [Example 110, (4R,5R)-4-(5-((Z)-2-(5-chloropyrazin-2-yl)-2-fluorovinyl)-2-fluorophenyl)-4-methyl-5-(2,2,2-trifluoroethoxy)-5,6-dihydro-4H-1,3-oxazin-2-amine], the IC50 in [5] came out at 90 nM; in data set [6], 341 nM; in data set [7] it was 1500 nM; in data set [8], 524000 nM.

Consider `C[C@@]1(c2cc(-c3cncnc3)c(F)cc2F)CCSC(N)=N1` [LY 2811376], for which the eye toxicity finding result in data set [11] was “damaged the pigment epithelium of the rat's eye”.

`NC1=N[C@@](c2cc(/C=C(\F)c3ccc(Br)cn3)ccc2F)(C(F)F)[C@H]2C[C@H]2O1` [Example 100, (1R,5S,6R)-5-(5-((Z)-2-(5-bromopyridin-2-yl)-2-fluorovinyl)-2-fluorophenyl)-5-(difluoromethyl)-2-oxa-4-azabicyclo[4.1.0]hept-3-en-3-amine]: the IC50 in data set [5] turned out to be 948 nM; in data set [6], 257 nM; in data set [7] it was 564 nM; in data set [8] it was 63900 nM.
